Laboratory results taken from patent US10241113B2, “CD28 expression during lenalidomide immune modulation” (H. LEE MOFFITT CANCER CENTER AND RESEARCH INSTITUTE, INC., priority 2012, dated 2019).

What was measured:
[1] = species comparison; cited from earlier work
purified human T-cells [2] = experiment: T-cell proliferation by BrdU incorporation, anti-CD3 stimulated; assay type: cell-based; conditions: increasing anti-CD3, 10 μM LEN
Text: (§1) Peripheral blood from buffy coats of healthy donors was obtained from the Southwest Florida Blood Services, St. Petersburg, Fla., for use as controls and for the purification of T-cells. T-cells were isolated from the buffy coats using RosetteSep® Human CD3^+ T-cell Enrichment Cocktail (StemCell Technologies, Vancouver, BC Canada) according to the manufacturer's protocol. B57BL6 mice were maintained at an animal facility in accordance with the University of South Florida Committee on Animal Care. All mice were adult age 8-12 weeks, obtained from The Jackson Laboratory, and maintained in a pathogen-free environment at Moffitt Cancer Center. Mouse-specific antibodies for T-cell activation were purchased from eBioscience (San Diego, Calif.) and human-specific antibodies were purchased from BD Biosciences (San Jose, Calif. USA). To activate the T-cell receptor (TCR), T-cells were stimulated with plate-bound anti-CD3 antibody (1 μg/ml or indicated concentration) coated onto flat-bottomed polystyrene tissue culture plates overnight at 4° C. […]
Proliferation was determined after in vitro activation by bromodeoxyuridine (BrdU) incorporation (BrdU flow kit, BD Biosciences, San Diego, Calif. USA). […] The percentage of BrdU positive cells from each population was analyzed using Flow-Jo Software (TreeStar Inc, Ashland, Oreg. USA.).

purified human T-cells [3] = experiment: IL-2 production by ELISA in stimulated T-cells; assay type: cell-based
Text: (§2) Peripheral blood from buffy coats of healthy donors was obtained from the Southwest Florida Blood Services, St. Petersburg, Fla., for use as controls and for the purification of T-cells. T-cells were isolated from the buffy coats using RosetteSep® Human CD3^+ T-cell Enrichment Cocktail (StemCell Technologies, Vancouver, BC Canada) according to the manufacturer's protocol. B57BL6 mice were maintained at an animal facility in accordance with the University of South Florida Committee on Animal Care. All mice were adult age 8-12 weeks, obtained from The Jackson Laboratory, and maintained in a pathogen-free environment at Moffitt Cancer Center. Mouse-specific antibodies for T-cell activation were purchased from eBioscience (San Diego, Calif.) and human-specific antibodies were purchased from BD Biosciences (San Jose, Calif. USA). To activate the T-cell receptor (TCR), T-cells were stimulated with plate-bound anti-CD3 antibody (1 μg/ml or indicated concentration) coated onto flat-bottomed polystyrene tissue culture plates overnight at 4° C. Purified T-cells (1×10^6/ml) were added to the coated 96-well plates in a 200 μl volume for 48 hours at 37° C. In some instances, 1.0 μg/ml anti-CD28 was added for co-stimulation.
(§3) Lenalidomide (Revlimid®) was provided by Celgene Corporation (Warren, N.J.). […] An equal volume of DMSO was used as a vehicle control.
For siRNA knockdown (KD), T-cells were transfected with siCD28 or control siRNA (Santa Cruz Biotechnology, Inc, Santa Cruz, Calif. USA) using Amaxa Nucleofection technology (Lonza, Basel, Switzerland). 10×10^6 purified T-cells were mixed with either control or CD28 siRNA in 100 μl Human T-cell nucleofection solution, nucleofected, and then placed in Lymphocye Media (Lonza Basel, Switzerland). Cells were rested 24 hours before being stimulated with either plate bound anti-CD3, or anti-CD3^+CD28, antibodies in the presence or absence of LEN. CD28 surface expression was measured via flow cytometry at 48 and 72 hours after stimulation, at the same time supernatant was collected for ELISA analysis. […]

IL-2 gene = experiment: IL-2 mRNA expression by RT-qPCR; assay type: cell-based, human; conditions: anti-CD3 alone without anti-CD28, 18 hours
Text: as §1, with “USA).” for “USA). To activate the T-cell receptor (TCR), T-cells were stimulated with plate-bound anti-CD3 antibody (1 μg/ml or indicated concentration) coated onto flat-bottomed polystyrene tissue culture plates overnight at 4° C.”
(§4) Total RNA was extracted from purified T-cells using the RNeasy Mini Kit (Qiagen, Chatsworth, Calif. USA). […] Relative target gene expression was measured by qRT-PCR using 18S rRNA expression as a reference gene. Expression levels of target mRNA and 18S rRNA were evaluated with Taqman Probes obtained from Applied Biosystems (Carlsbad, Calif.). All samples for both target genes (IL-2 or CD28) and 18S rRNA were measured in triplicate. Relative mRNA expression level for each sample was calculated using the ΔΔCt method (Pfaffl M W. Nucleic Acids Res 2001 May 1; 29(9):e45).

murine T-cells = experiment: IL-2 production by ELISA in murine T-cells; assay type: cell-based, B57BL6 mice
Text: as §2, §3

[4] = system: pCREB binding to the IL-2 promoter; experiment: Chromatin immunoprecipitation of pCREB at the IL-2 promoter; assay type: cell-based, human; conditions: anti-CD3 alone, 18 hours, 10 μM LEN
Procedure: Cells were isolated, fixed, lysed, and sonicated before chromatin-immunoprecipitation, as previously described (Smith M A, et al. J Biol Chem 2011 Mar. 11; 286(10):7893-904). Briefly, after stimulation and drug treatment, primary T-cells were treated with 1% formaldehyde for 10 min for cross-linking, followed by cell and nuclear lysis (50 mM Tris, pH 8.1, 10 mM EDTA, 1% SDS, 0.5 mM PMSF) and shearing. Chromatin was immunoprecipitated using 5 μg anti-phospho-CREB antibody (Millipore, Temecula, Calif. USA) and protein A/G beads (Santa Cruz Biotechnology Inc., Santa Cruz, Calif. USA). Immunoprecipitated chromatin was collected and washed sequentially with TSE buffer (20 mM Tris, pH 8.1, 50 mM NaCl, 2 mM EDTA, 0.1% SDS, 1.0% Triton X-100) and LiCl buffer (100 mM Tris, pH 8.1, 50 mM LiCl, 1% Nonidet P-40, 1% sodium deoxycholic acid, 1 mM EDTA). DNA was then eluted from the beads with 50 mM NaHCO3 containing 1% SDS and cross-linking reversed at 65° C. overnight followed by proteinase K treatment. DNA was then purified via QIAquick PCR purification kit (Qiagen, Germantown, Md. USA). For each sample, 4 μl DNA was amplified and measured using Sybr Green (Bio-Rad, Inc., Hercules, Calif. USA). Primers used to amplify the pCREB binding site-180 upstream of the transcription start site were: forward: 5′-[…]-3′ (SEQ ID NO:1) and reverse: 5′-[…]-3′ (SEQ ID NO:2).

CD28 [5] = experiment: CD28 surface expression by flow cytometry after anti-CD3 stimulation; assay type: cell-based, human; conditions: anti-CD3 alone, 72 hours
Procedure: Stimulation followed by measurement of CD28 surface expression was performed using anti-CD3 (10 μg/ml) alone or anti-CD3 (10 μg/ml) plus anti-CD28 (10 μg/ml) coupled 4.5 micron polystyrene polybeads (Polysciences, Inc, Warrington, Pa. USA). 1×10^5 beads were added to 2×10^5 cells in u-bottom 96-well plates, as previously described (Viola A, et al. Science 1999 283(5402):680-2). Cells were collected at 72 hours and 5 days, and CD28 surface expression was measured via flow cytometry on LSRII flow cytometer (BD Biosciences, San Jose, Calif. USA).

CD28 [6] = experiment: CD28 mRNA expression by RT-qPCR; assay type: cell-based, human; conditions: anti-CD3 stimulation, 18 or 24 hours
Procedure: as §4

CD28 [7] = experiment: Western blot for total CD28 protein expression; assay type: cell-based, human; conditions: anti-CD3 activation for 1, 2, 4, 8, 12, and 48 hours
CD28^+ T-cells = experiment: IL-2 ELISA after CD28 siRNA knockdown; assay type: cell-based, human; conditions: average
Procedure: (§5) For siRNA knockdown (KD), T-cells were transfected with siCD28 or control siRNA (Santa Cruz Biotechnology, Inc, Santa Cruz, Calif. USA) using Amaxa Nucleofection technology (Lonza, Basel, Switzerland). 10×10^6 purified T-cells were mixed with either control or CD28 siRNA in 100 μl Human T-cell nucleofection solution, nucleofected, and then placed in Lymphocye Media (Lonza Basel, Switzerland). Cells were rested 24 hours before being stimulated with either plate bound anti-CD3, or anti-CD3^+CD28, antibodies in the presence or absence of LEN. CD28 surface expression was measured via flow cytometry at 48 and 72 hours after stimulation, at the same time supernatant was collected for ELISA analysis. Supernatant from stimulation experiments was frozen at −80° C. for analysis via Human IL-2 ELISA kit (eBioscience, San Diego, Calif. USA).

CD28 [8] = experiment: CD28 internalization and re-expression by flow cytometry after co-stimulation; assay type: cell-based, human
Procedure: as §5

[9] = system: CD8^+CD28^+ and CD8^+CD28^− T-cells; experiment: BrdU proliferation of sorted CD8^+CD28^+ and CD8^+CD28^− T-cells; assay type: cell-based, human; conditions: 3 days, 10 μM LEN
Procedure: Proliferation was determined after in vitro activation by bromodeoxyuridine (BrdU) incorporation (BrdU flow kit, BD Biosciences, San Diego, Calif. USA). […] of BrdU was added during the last 45 min of T-cell stimulation. BrdU pulsed T-cells were harvested and stained with anti-CD4-PE and anti-CD8-PE-Cy-5 (BD Pharmingen, San Jose, Calif. USA). The cells were then fixed and permeabilized with BD Cytofix/Cytoperm buffer and incubated with DNase for 1 hour at 37° C. Cells were stained with anti-BrdU-FITC antibody before flow cytometry analysis on an LSRII flow cytometer (BD Biosciences, San Jose, Calif. USA). The percentage of BrdU positive cells from each population was analyzed using Flow-Jo Software (TreeStar Inc, Ashland, Oreg. USA.).
(§6) T-cells were purified from healthy donor buffy coats as previously described, and were stained with 4′,6-diamidino-2-phenylindole (DAPI) for viability, anti-CD8-APC-Cy7, CD4-PerCP-Cy5.5, and CD28-FITC antibodies (BD Pharmingen, San Jose, Calif.). Cells were then sorted into CD8^+CD28^+, CD8^+CD28^− populations via FACS Aria Cell Sorter (BD Pharmingen, San Jose, Calif.).

CD8^+CD28^− T-cells = experiment: IL-2 ELISA of sorted CD8^+CD28^− T-cells; assay type: cell-based, human; conditions: anti-CD3 stimulation, 3 days, 10 μM LEN
Text: as §6, §5

MDS patients = experiment: Hematologic response of MDS patients versus pre-treatment CD28 expression; assay type: in vivo, human; conditions: 10 mg 21 of 28 days, 16 weeks, 7 NR and 4 R
Procedure: MDS patients (n=100) were consented at H. Lee Moffitt Cancer Center in Tampa, Fla. to participate in a peripheral blood collection protocol approved by the University of South Florida Institutional Review Board from 2004-2009. All patients signed University of South Florida Institutional Review Board approved informed consents for the collection of 40 ml of peripheral blood in heparin tubes. Samples were obtained from each patient at various times from 2004-2009 for immune monitoring studies and all cells were frozen in liquid nitrogen. Twenty-one of these patients had samples that were collected within 4 weeks prior to LEN treatment. LEN was administered at a dose of 10 mg for 21 out of a 28-day cycle for four cycles. All patients were evaluated for hematologic response after 16 weeks according to 2006 International Working Group Criteria (IWG). […]
Naïve and memory CD4 and CD8 T-cell subtypes in MDS patients and healthy donors were detected after surface staining with anti-CD3-PE-Cy7, anti-CD8-PerCP-Cy5.5, anti-CD45RA-FITC, anti-CD27-APC, anti-CD28-PE, and DAPI (all from BD Biosciences, San Jose, Calif. USA). […] Samples were run on an LSRII flow cytometer (BD Pharmingen) and populations were analyzed by FlowJo Software (Tree Star Inc., Ashland, Oreg. USA).

[10] = Storage of DMSO stock solutions; assay type: physicochemical; conditions: −20° C.
Text: as §3

O=C1CCC(N2C(=O)c3ccccc3C2=O)C(=O)N1 (stereo not drawn) [Thalidomide]
teratogenic activity [1]: teratogenic activity only in humans, rabbits, chickens and zebrafish, but not in rodents

Nc1cccc2c1CN(C1CCC(=O)NC1=O)C2=O (stereo not drawn) [LEN, Lenalidomide]
proliferating cells (% BrdU positive) compared to DMSO (purified human T-cells [2]): stimulated more cells to proliferate in a dose dependent fashion
IL-2 production with increasing concentrations of LEN (purified human T-cells [3]; fixed 5 μg/ml anti-CD3 alone): dose-dependency of IL-2 production
increase in IL-2 production (purified human T-cells [3]; human T-cells, anti-CD3 plus anti-CD28 co-stimulation, average, p<0.001): 6 fold
production of IL-2 compared to DMSO (purified human T-cells [3]; human T-cells, increasing anti-CD3, no anti-CD28, 10 μM LEN): increased the production of IL-2
IL-2 mRNA compared to DMSO (IL-2 gene): dose-dependent increase in IL-2 mRNA
IL-2 production in TCR-stimulated murine T-cells (murine T-cells; anti-CD3 alone): failed to induce IL-2 production
anti-CD28 signaling response (IL-2) in murine T-cells (murine T-cells; anti-CD3 plus anti-CD28): failed to intensify the anti-CD28 signaling response
binding of pCREB to the IL-2 promoter compared to DMSO [4]: increases binding of pCREB to the IL-2 promoter
CD28 surface expression (MFI) compared to DMSO (CD28 [5]): amplifies this anti-CD3 response
CD28 mRNA (CD28 [6]): did not significantly increase
total protein expression of CD28 (CD28 [7]): did not significantly increase
LEN-induced IL-2 release, fold increase (CD28^+ T-cells; control siRNA): 7.5 fold
LEN-induced IL-2 release, fold increase (CD28^+ T-cells; siRNA-CD28 knockdown): 4.9 fold
CD28 re-expression (CD28 [8]; after anti-CD3 plus anti-CD28 stimulation): re-expression was slightly increased
ligand-induced CD28 internalization (CD28 [8]; anti-CD3 plus anti-CD28 stimulation): does not impair ligand-induced internalization
proliferation of CD8^+CD28^+ T-cells ([9]; anti-CD3 stimulation alone): increased proliferation of CD8^+CD28^+ T-cells in a dose-dependent fashion
proliferation of CD8^+CD28^− T-cells compared to DMSO ([9]; anti-CD3 stimulation): displayed no response to LEN
elaboration of IL-2 in CD8^+CD28^− T-cells (CD8^+CD28^− T-cells): completely abolished in CD8^+CD28^− T-cells with no response to LEN
hematologic response (IWG) in relation to pre-treatment CD28^+ T-cells (MDS patients): correlation between accumulation of CD28^− T-cells and resistance to LEN
stability of stock solutions on storage [10]: variable loss in activity
